According to paper PMC5371824, “Phosphatidylinositol (4,5)-bisphosphate dynamically regulates the K2P background K^+ channel TASK-2” (Scientific Reports, 2017):
“Also recorded” adds a separate entry of the source. Like-named read-outs stand apart in the source and are kept apart here.

How the values were obtained:
[1] = target: T1, TASK-2 (Mus musculus, UniProt F6V9U5); assay: Excised inside-out patch recording from HEK-293 cells over-expressing TASK-2; assay type: biochemical; conditions: for Inhibition of TASK-2 activity by polycation PI scavengers: in the presence of intracellular ATP
T1 construct: expressed in transfected cells; host or cells: HEK-293
T1 sequence (F6V9U5 1-502): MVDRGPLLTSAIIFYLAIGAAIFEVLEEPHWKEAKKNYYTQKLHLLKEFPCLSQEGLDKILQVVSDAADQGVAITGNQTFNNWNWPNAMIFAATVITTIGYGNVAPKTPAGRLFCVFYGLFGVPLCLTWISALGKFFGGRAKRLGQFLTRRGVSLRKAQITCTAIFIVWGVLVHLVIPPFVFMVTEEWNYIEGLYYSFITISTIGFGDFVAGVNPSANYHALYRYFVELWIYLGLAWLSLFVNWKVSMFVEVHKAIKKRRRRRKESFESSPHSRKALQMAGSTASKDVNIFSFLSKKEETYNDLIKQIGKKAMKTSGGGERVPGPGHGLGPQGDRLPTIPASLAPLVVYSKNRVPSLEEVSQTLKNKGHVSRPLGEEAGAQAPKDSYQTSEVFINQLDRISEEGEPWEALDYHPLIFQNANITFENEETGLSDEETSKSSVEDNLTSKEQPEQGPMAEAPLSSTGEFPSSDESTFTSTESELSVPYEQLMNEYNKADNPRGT

[2] = system: TASK-2-K257A-K258A; assay: Whole-cell current in HEK-293 cells co-transfected with AT1 and TASK-2-K257A-K258A; assay type: cell-based, Mus musculus; conditions: 1 μM, pulses to 0 mV from -75 mV, Gβγ-insensitive mutant
Method: Figure 3 Gq protein coupled receptor inhibition of TASK-2 and minor effect of diacylglycerol. (A) Effect of activation of the angiotensin II receptor AT1 on TASK-2-mediated currents. HEK-293 cells were co-transfected with AT1 and TASK-2, or the TASK-2-K257A-K258A mutant. Current was monitored by brief pulses to 0 mV from a holding potential of −75 mV. Angiotensin II at a concentration of 1 μM was added during the indicated time. Results are means ± SEM of 6 experiments for TASK-2 and 4 experiments for TASK-2-K257A-K258A. (B) Effect of a diacylglycerol analogue assayed on TASK-2- and TASK-3-expressing cells. Current was monitored by brief pulses to 0 mV from a holding potential of −75 mV. The box labelled DAG indicates the addition of diacylglycerol short-chain analogue 1,2-dioctanoyl-sn-glycerol at 100 nM. Results are means ± SEM of 5 experiments for TASK-2 and 8 experiments for TASK-3.
Mus musculus TASK-2 (GenBank accession No. AF319542) plasmid was that obtained from mouse kidney. The cDNAs was subcloned into the pCR3.1 vector. […]
Transiently transfected HEK-293 cells in 35 mm Petri dishes were transferred to the stage of an inverted microscope for study. […] All our whole-cell experiments keep both intra- and extracellular chloride at 10 mM and although currents were measured at several potentials, data mostly reported are those obtained at 0 mV. […]

[3] = system: TASK-2 expressed with angiotensin II AT1 receptors; assay: Whole-cell current in HEK-293 cells co-transfected with AT1 and TASK-2; assay type: cell-based, Mus musculus; conditions: 1 μM, pulses to 0 mV from -75 mV
Method: Transiently transfected HEK-293 cells in 35 mm Petri dishes were transferred to the stage of an inverted microscope for study. There they were continuously superfused with a bathing solution containing (in mM): 67.5 Na2SO4, 4 KCl, 1 K gluconate, 2 CaCl2, 1 MgCl2, 105 sucrose, and 10 Hepes/Tris (pH 7.5) (standard solution). […] All our whole-cell experiments keep both intra- and extracellular chloride at 10 mM and although currents were measured at several potentials, data mostly reported are those obtained at 0 mV. […]

[4] = system: Kir4.1/Kir5.1; design: method as in PMID 18690035; conditions: read-out: neomycin IC50; cited from earlier work
[5] = target: T1, TASK-2; assay: Whole-cell patch-clamp of HEK-293 cells expressing TASK-2; assay type: cell-based; conditions: whole-cell, 1 mM intracellular ATP, 0 mV
Method: (§1) Mus musculus TASK-2 (GenBank accession No. AF319542) plasmid was that obtained from mouse kidney. The cDNAs was subcloned into the pCR3.1 vector. Mutations were made by site-directed mutagenesis into the pCR3.1 vector as previously described[69] and confirmed by sequencing. HEK-293 cells were cultured in Dulbecco’s modified Eagle’s medium (DMEM) and F12 Ham’s medium at a 1:1 ratio and supplemented with 10% fetal calf serum at 37 °C in 5% CO2. For electrophysiological experiments, transient transfections were performed by electroporation, using CD8 cotransfection to identify effectively transfected cells. […] Experiments were performed 4–8 h after electroporation. In experiments with the voltage-sensitive phosphatase TASK-2 or its mutants were co-electroporated with a pCR3.1-DrVSP-IRES-CD8 vector.
Transiently transfected HEK-293 cells in 35 mm Petri dishes were transferred to the stage of an inverted microscope for study. There they were continuously superfused with a bathing solution containing (in mM): 67.5 Na2SO4, 4 KCl, 1 K gluconate, 2 CaCl2, 1 MgCl2, 105 sucrose, and 10 Hepes/Tris (pH 7.5) (standard solution). A high K^+ solution was obtained by equimolar replacement of Na^+ by K^+. The pipette solution contained (mM) 8 KCl, 132 potassium gluconate, 1 MgCl2, 10 EGTA, 1 Na3ATP, 0.1 GTP, 10 HEPES/Tris, pH 7.4. Standard whole-cell, patch-clamp recordings were performed as described elsewhere. All our whole-cell experiments keep both intra- and extracellular chloride at 10 mM and although currents were measured at several potentials, data mostly reported are those obtained at 0 mV. Potentials were corrected for liquid junction shifts. Acquisition and analysis was done with Clampfit 9.0 (Axon Instruments, Foster City, CA, USA). Further data analysis was done using the curve fitting features of SigmaPlot v. 12 (Systat Software Inc., San Jose, CA, USA).

[6] = system: TASK-2-R438C; assay: Excised inside-out patch recording, TASK-2-R438C mutant; assay type: biochemical, Mus musculus; design: key to Neomycin inhibition: ✓ under Neomycin inhibition indicates a significantly lower IC50 for inhibition by neomycin compared to control; — in all cases stands for no significant effect
Method: as §1
Recordings in the inside-out isolated patch configuration were performed in the gap-free mode at −60 mV. The inside aspect of the patch was bathed with a solution containing in mM: 10 KCl, 10 Glucose, 1 MgCl2, 10 EGTA, 1 Na3ATP, 0.1 GTP, 6.8 g/100 ml Sucrose, 10 Hepes/Tris, pH 7.4. The pipette contained in mM: 140 KCl, 10 Glucose, 6.8 g/100 ml Sucrose, 10 Hepes/Tris pH 7.4. For isolated patches, borosilicate capillaries (Harvard Apparatus GC150F-10 1.5 ODx0.86 ID) were fire polished to 4–5 MΩ and covered in beeswax. Acquisition was at 10 kHz with filter at 3 kHz (4-pole Bessel) and analysis was done with Clampfit 9.0 (Axon Instruments, Foster City, CA, USA). Traces shown are prints from crude Clampfit screen shots and quantification was done using the average currents were calculated at intervals using Clampfit after baseline adjustment.
Fig. S7. Concentration ependence for the inhibition of TASK-2 mutant R438C by
intracellular neomycin. Recording were obtained from excised inside-out patches of
membrane taken from a HEK-293 cells over-expressing TASK-2-R438C. The patches were
held at -60 mV in the presence of 1 mM intracellular ATP. Neomycin was increased
stepwise from 5 to 500 µM in the solution bathing the intracellular aspect of the membrane. […]

CCCCCCCC(=O)OC[C@H](COP(=O)(O)O[C@H]1[C@H](O)[C@@H](O)[C@H](OP(=O)(O)O)[C@@H](O)[C@H]1O)OC(=O)CCCCCCC [PI(4)P, phosphatidylinositol 4-monophosphate diC8]
Effect of readmitted ATP relative to the maximal effect elicited by the PIP ([1]; 1 mM ATP added after PIP, inside-out patches, Fig. S3): 5.6 fold
Stimulating effect on TASK-2-mediated currents after run-down ([1]; diC8 PIP added to inside-out excised patches, absence of ATP): quite small; also recorded: rather weak
Maximal fold effect on TASK-2 current (normalised to current in absence of PIP) ([1]; diC8 PIP, inside-out patch, -60 mV, absence of ATP, from fits, means ± SEM): 1.4 ± 0.4 fold
EC50 ([1]; diC8 PIP, inside-out patch, -60 mV, absence of ATP, from fits, means ± SEM, read-out: K0.5 (EC50) for activation of TASK-2 current): 50.6 ± 1.3 µM
Hill coefficient nH of dose response curve ([1]; diC8 PIP, inside-out patch, absence of ATP): 2

CCCCC[N+](CCCCC)(CCCCC)CCCCC [TPeA, tetrapentyl ammonium]
IC50 [1]: ~2 µM

angiotensin II (DRVYIHPF; Angiotensin-2; UniProt P01019 25-32, looked up) [agonist of the Gq-coupled angiotensin II AT1 receptor]
Effect on TASK-2-K257A-K258A current via AT1, compared with TASK-2 [2]: not significantly different
Effect on TASK-2-mediated current via AT1 receptor [3]: markedly inhibited

neomycin
Inhibition of TASK-2 activity in excised inside-out patches ([1]; 300 μM, -60 mV, 1 mM intracellular ATP): strongly inhibited
IC50 ([1]; WT TASK-2, inside-out patch, -60 mV, 1 mM intracellular ATP, neomycin 5 to 500 μM intracellular, mean ± SEM, n = 4, read-out: IC50 for neomycin inhibition of TASK-2 current): ~20 µM
IC50 ([1]; WT TASK-2, inside-out patch, graded intracellular neomycin, mean ± SEM, four experiments, unit inferred, read-out: IC50 for neomycin inhibition of TASK-2 current): 23.4 ± 2.7 µM
Inhibition of TASK-2 activity by polycation PI scavengers [1]: inhibit TASK-2 activity
IC50 [4]: 110 µM
Inhibition of TASK-2 activity by intracellular neomycin ([5]; 100 μM in pipette): intermediate effect
Inhibition of TASK-2 activity by intracellular neomycin ([5]; 200 μM in pipette): near maximum effect
IC50 ([6]; inside-out patch, -60 mV, 1 mM intracellular ATP, neomycin 5 to 500 µM, mean ± SEM, n=4, read-out: IC50 for neomycin inhibition of TASK-2-R438C current): 8.9 ± 1.5 µM
Neomycin inhibition ([6]; mutation R438C, IC50 compared to WT TASK-2): ✓

poly-lysine
Inhibition of TASK-2 activity by polycation PI scavengers [1]: inhibit TASK-2 activity
